These are literature values, as cited in patent US12649733B2, “3,6-diamino-pyridazin-3-yl derivatives, pharmaceutical compositions containing them and their uses as pro-apoptotic agents” (LES LABORATOIRES SERVIER, priority 2019, dated 2026).

For data set [1], the system named is allogeneic T- and B-cell responses. As to conditions: after skin transplantation; cited from earlier work.
Another data set relates to lymphocyte proliferation. As to conditions: in vitro; cited from earlier work.
Data set [2] has as its system T-ALL patient derived xenograft models. As to conditions: in vivo; cited from earlier work.
For data set [3] the following is noted: mice, animal models of arthritis and lupus; cited from earlier work.
For another data set, the system named is allogeneic T-cell. As to conditions: in vitro; cited from earlier work.

As to `CN(C)CC[C@H](CSc1ccccc1)Nc1ccc(S(=O)(=O)NC(=O)c2ccc(N3CCN(Cc4ccccc4-c4ccc(Cl)cc4)CC3)cc2)cc1[N+](=O)[O-]` [ABT-737], the “allogeneic T- and B-cell responses” value in data set [1] is “inhibited allogeneic T- and B-cell responses”. For the same molecule, the “inhibition of lymphocyte proliferation” value with lymphocyte proliferation is “potent inhibition of lymphocyte proliferation”. Besides, the “activity in T-ALL patient derived xenograft models” value in data set [2] is “promising activity”. Moreover, the disease severity result in data set [3] was “significant decrease in disease severity”. For the same molecule, in the data set with allogeneic T-cell, the “allogeneic T-cell activation, proliferation, and cytotoxicity” value is “prevented allogeneic T-cell activation, proliferation, and cytotoxicity”.
